Assay results from paper PMC6511062, “Preclinical candidate for the treatment of visceral leishmaniasis that acts through proteasome inhibition” (Proceedings of the National Academy of Sciences of the …, 2019).
“Also recorded” adds a separate entry of the source. Where two headings read alike, the source gives them in different places.

Experiments:
[1] = system: clinically-relevant Leishmania strains; assay: Activity in clinically-relevant Leishmania strains; type: cell-based
From the text: Strain Leishmania EC50 (µM) Host Cell EC50 (µM)
Results from one or two (both values shown) biological replicates. […]

[2] = system: Host Cell; assay: Host cell toxicity in the clinical strain panel; type: cell-based
From the text: page 46: Supplementary Tables Table S1. […] MHOM/IN/2002/BHU1 0.6 >50 […] Results from one or two (both values shown) biological replicates. Table S2. […] Data represents % of reduction of parasite burden in drug- treated and vehicle control animals calculated from mean LDU data.

[3] = Pharmacokinetics in male beagle dogs; type: in vivo, dog
Procedure: 5. Intrinsic clearance (CLint) […]
6. Pharmacokinetic studies.
Mouse pharmacokinetic studies were conducted in male CD-1 mice and male beagle dogs. 3 animals per group were used for each study performed.
A dose of 3 mg/kg was administered intravenously, in a bolus form to mice and infused over a 30 min period to dogs. For all the intravenous studies compound were dissolved in 5% DMSO/20% kleptose in saline.
A dose of 10 mg/kg was orally administered by gavage to the two species in a suspension of 1% methylcellulose to investigate oral pharmacokinetics.
Peripheral blood samples were obtained at 5, 15, 30 min, 1, 2, 4, 6 ,8 and 24 h after intravenous administration and 15, 30, 45 min,1, 2, 4, 6, 8 and 24 h after oral administration. Blood was 1/2 diluted with milliQ water and immediately frozen on dry ice until analysis. Quantification was performed by means of LC-MS/MS (API4000), with a lower limit of quantification of 1 ng/mL.
Pharmacokinetic parameters, namely clearance (CL), volume of distribution at steady state (Vss) and bioavailability (F%), were estimated using Phoenix, WinNonLin […]
Data analysis and calculation of pharmacokinetic parameters was performed using Phoenix, WinNonLin Version 6.3.
Following the intravenous administration, the whole blood clearance was calculated

[4] = 7 day oral repeat-dose rat toxicology and toxicokinetics; conditions: for tolerability: male rats, oral
Procedure: b. 7 day rat toxicology studies
A 7 day oral repeat-dose study in male rats was conducted to determine the toxicity […]
Groups of male rats (4/group toxicity; 3/group […]
up to 7 days by oral gavage. […]

[5] = system: caspase activity of the L. donovani proteasome; assay: Proteasome activity assay, caspase-like, L. donovani; type: biochemical, Leishmania donovani
Procedure: (§1) k. Proteasome activity assays
(§2) Compounds were dispensed into black 384-well assay plates (Greiner) by acoustic dispensing (LabCyte ECHO). For potency determinations, eleven-point, one in three dilution curves were generated, with a top concentration of 100 µM. Three proteasome activities were measured using a commercially available indirect enzyme-based luminescent assay kit (Promega) with Suc-LLVY-aminoluciferin, Z-LRR-aminoluciferin and Z-nLPnLD-aminoluciferin used as substrates for chymotrypsin-like, trypsin-like and caspase-like activities, respectively. In addition to proteasome samples: L. donovani and THP1-enriched proteasomes, commercially available human purified 26S proteasome (Boston Biochem) was also assessed. Proteasome final assay concentration were 0.025 mg/ml for L. donovani and THP1-enriched proteasomes and 1 nM for human purified 26S proteasome. Proteasome solution was added to the plates containing the compounds one hour before adding the proteasome substrate solution.
(§3) Substrate solution was then added and after 30 min of incubation luminescent signal was measured in an Envision reader (PerkinElmer).
(§4) Cultures of L. donovani axenic amastigotes were diluted to either 8 x 106 or 8 x 107 […]
value. […]
(§5) value) were used as negative and positive controls, respectively. […] Protein concentrations were determined by standard Bradford assays and Laemmli sample buffer was added to samples. […]

[6] = system: trypsin activity of the L. donovani proteasome; assay: Proteasome activity assay, trypsin-like, L. donovani; type: biochemical, Leishmania donovani
Procedure: as §1, §2, §3, §4
value. […]
as §5

[7] = system: human proteasome catalytic subunits (THP-1 extracts); assay: Activity-based probe (UbiQ-018) labelling of THP-1 proteasome; type: binding; conditions: human THP-1 extracts, 100 µM
Procedure: Activity-Based Probe Labelling of THP1 and L. donovani proteasome
Proteasome enriched fractions from THP1 (20 µg), L. donovani (10 µg) and L. donovani
µM for 1 h. Proteasome enriched fractions were also incubated with DMSO as control.
For all proteasome labelling experiments, the active-site probe Me4BodipyFL-Ahx3Leu3VS (UbiQ-018) was used at final concentration of 500 nM in sucrose buffer (50 mM Tris buffer pH 7.5, 5 mM magnesium chloride, 1 mM EDTA, 50 mM NaCl, 250 mM sucrose, 2 mM ATP, 1 mM DTT). Proteasome enriched fractions treated with
DMSO or test compounds, were incubated with the probe for 2h at RT. Samples were then denatured by addition of Laemmli sample buffer, heated to 95°C for 10 min and separated by electrophoresis on a 15% SDS-PAGE acrylamide gel. Following separation, gels were scanned in the fluorescein channel of a ChemiDoc reader (λ excitation/emission = 480/530 nm). Fluorescent proteins were excised and MALDI– TOF analysis carried out by the FingerPrints Proteomics service at the University of

[8] = system: ubiquitylated proteins in L. donovani axenic amastigotes; assay: Western blot of ubiquitylated proteins in axenic amastigotes; type: cell-based, Leishmania donovani; conditions: dose-dependent
Procedure: as §1
as §2, with “Proteasome solution was added to the plates containing the compounds one hour before adding the proteasome substrate solution.” left out
Substrate solution was then added and after 30 min of incubation luminescent signal was measured in an Envision reader (PerkinElmer). […]
as §5
Figure S6. […] Ubiquitin proteins were detected using the human anti-ubiquitin P4D1 antibody diluted 1:1,000. […]

[9] = system: L. donovani (LV9); assay: Mouse model of VL (in vivo efficacy in female Balb/C mice); parameters: species or system Leishmania donovani; conditions: 50 mg/kg b.i.d. (10 days PO)
[10] = male, beagle, whole blood, dog, 3 mg/kg iv 0.5 h infusion

SMILES: O=C(Nc1ccc(F)c(-c2ccn3c(N4CCOCC4)cnc3n2)c1)N1CCCC1 [Compound 8]
- EC50 ([1]; Leishmania, in vitro, clinical strains incl. LV9, SUKA001, DD8-WT, BHU1, read-out: EC50 against clinical strains): ~1000 nM
- EC50 ([1]; Leishmania, strain MHOM/ET/67/HU3 (LV9), read-out: Leishmania EC50): 400 nM
- EC50 ([1]; Leishmania, strain MHOM/IN/80/DD8, read-out: Leishmania EC50): 1600 nM
- EC50 ([1]; Leishmania, strain MHOM/IN/2002/BHU1, read-out: Leishmania EC50): 600 nM
- EC50 ([1]; Leishmania, strain SUKA001, read-out: Leishmania EC50): 500 nM
- EC50 ([1]; strain MHOM/ET/67/HU3 (LV9), read-out: Leishmania EC50): 800 nM
- EC50 ([2]; strain MHOM/ET/67/HU3 (LV9)): > 50000 nM
- EC50 ([2]; strain MHOM/IN/80/DD8): > 50000 nM
- EC50 ([2]; strain MHOM/IN/2002/BHU1): > 50000 nM
- EC50 ([2]; strain MHOM/MA/67/ITMAP263): > 50000 nM
- EC50 ([2]; strain SUKA001): > 50000 nM
- blood clearance ([3]; dog): 30 mL/min per kilogram
- Cl (%LBF) ([3]; dog, 3 mg/kg iv): 53%
- Vss ([3]; dog, 3 mg/kg iv 0.5 h infusion, 3 mg/kg): 1.3 L/kg
- Vd ([3]; male, beagle, dog, whole blood, iv, 3 mg/kg, dog, 3 mg/kg iv 0.5 h infusion, read-out: Vss): 1.34 ± 0.381 L/kg
- clearance [3, 10]: 29.6 ± 6.06 mL/min/kg
- half-life [3, 10]: 31.2 ± 4.8 min
- bioavailability ([3]; whole blood, Beagle male dog, 10 mg/kg po, read-out: F (oral bioavailability)): 46%
- margin to the predicted human blood AUC0-24 ([4]; 300 mg/kg/day): 37 fold
- tolerability ([4]; 1000 mg/kg/day): not tolerated
- tolerability ([4]; 100 and 300 mg/kg/day, 7 days): tolerated over the 7 days
- rat 7-d toxicology study outcome ([4]; doses up to 300 mg/kg): no significant safety or tolerability liabilities were detected
- safety margin ([4]; male, rat, in vivo, 300 mg/kg, 7 days): at least 37 fold
- effect on caspase activity [5]: no effect
- effect on trypsin activity [6]: no effect
- UbiQ-018 labelling of proteasome subunits [7]: no effect
- accumulation of ubiquitylated proteins [8]: dose-dependent manner; also recorded: induces the accumulation of ubiquitylated proteins
- Reduction in parasite burden (compared to the vehicle control group) [9]: 99.1%
